This note sets out measurements from patent publication US20050227956A1, “Control of mold growth on wood” (priority 2004, published 2005).

Where two headings read alike, the source gives them in different places. Marks after values point to notes of the source that are not given here. Some results are limits rather than exact numbers.

Common to all, as to test: Six-well plate screening test
One experiment concerns Aspergillus niger. The experiment is classed as cell-based.
For the next experiment, the system named is Aureobasidium pullulans. Format: cell-based. Conditions: for MIC: single moldicide or ACQ-C alone, incubation period 14 days.
Experiment [1] deals with Cladosporium cladosporioides. Format: cell-based. The note with it: for MIC: single moldicide or ACQ-C alone, incubation period 14 days.
The subject of a further experiment is Penicillium funiculosum. The experiment is classed as cell-based. Conditions: for MIC: single moldicide or ACQ-C alone, incubation period 14 days.
Another experiment relates to Alternaria alternata. Format: cell-based. Conditions: for MIC: single moldicide or ACQ-C alone, incubation period 14 days.
The test system of the next experiment is Trichoderma virens. Format: cell-based. Conditions: for MIC: single moldicide or ACQ-C alone, incubation period 14 days.
In a further experiment the test system is Stachybotrus charatrum. Format: cell-based.
In a further experiment the test system is Mold from ACQ wood. The experiment is classed as cell-based, cephalosporium. The note with it: 10 days of incubation at room temperature.
[2] abbreviates: 10 days of incubation at room temperature.

For `CC(C)NC(=O)N1CC(=O)N(c2cc(Cl)cc(Cl)c2)C1=O` [Iprodione, 3-(3,5-dichlorophenyl)-N-isopropyl-2,4-dioxoimidazolidine-1-carboxamide], the “Minimum Inhibitory Concentrations (MIC)” value was 10 mg/kg with Aspergillus niger (setting [2]); >100 mg/kg in the experiment on Aureobasidium pullulans (setting [2]); >101 mg/kg in experiment [1] (setting [2]); >102 mg/kg in the experiment on Penicillium funiculosum (setting [2]); 100 mg/kg in the experiment on Alternaria alternata (setting [2]); >100 mg/kg in the experiment on Trichoderma virens (setting [2]).

Consider `CC(C)(C)C(=O)C(Oc1ccc(Cl)cc1)n1cncn1` (racemic) [Tridimefon, (RS)-1-(4-chlorophenoxy)-3,3-dimethyl-1-(1H-1,2,4-triazol-1-yl)butan-2-one], for which the “Minimum Inhibitory Concentrations (MIC)” value (in the experiment on Aspergillus niger (setting [2]); with Aureobasidium pullulans (setting [2]); in experiment [1] (setting [2]); in the experiment on Penicillium funiculosum (setting [2]); with Alternaria alternata (setting [2]); in the experiment with Trichoderma virens (setting [2])) was >100 mg/kg in each case. Besides, the “Minimum Inhibitory Concentrations (MIC)” value in the experiment with Stachybotrus charatrum (setting [2]) is listed as >100 mg/kg.

For the compound `COC(=O)Nc1nc2ccccc2[nH]1` [Carbendazim, methyl benzimidazol-2-ylcarbamate], the “Minimum Inhibitory Concentrations (MIC)” value is 5 mg/kg with Aspergillus niger (setting [2]); 0.1 mg/kg in the experiment on Aureobasidium pullulans (setting [2]); 1^a mg/kg in experiment [1] (setting [2]); 1 mg/kg with Penicillium funiculosum (setting [2]); >100 mg/kg in the experiment on Alternaria alternata (setting [2]); 1 mg/kg in the experiment with Trichoderma virens (setting [2]).

For the compound `CCCCNC(=O)n1c(NC(=O)OC)nc2ccccc21` [Benomyl, methyl 1-(butylcarbamoyl)benzimidazol-2-ylcarbamate], the “Minimum Inhibitory Concentrations (MIC)” value with Aspergillus niger (setting [2]) was 10 mg/kg; in the experiment with Aureobasidium pullulans (setting [2]), 100 mg/kg; in experiment [1] (setting [2]) it was 1^a mg/kg; in the experiment with Penicillium funiculosum (setting [2]) it was 1 mg/kg; in the experiment with Alternaria alternata (setting [2]), >100 mg/kg; with Trichoderma virens (setting [2]) it was 1 mg/kg.

For the compound `N#Cc1c[nH]cc1-c1cccc(Cl)c1Cl` [Fenpiclonil, 4-(2,3-dichlorophenyl)-1H-pyrrole-3-carbonitrile], the “Minimum Inhibitory Concentrations (MIC)” value with Aspergillus niger (setting [2]) was 1 mg/kg; in the experiment on Aureobasidium pullulans (setting [2]), 50 mg/kg; in experiment [1] (setting [2]) it was 10 mg/kg; with Penicillium funiculosum (setting [2]), >100 mg/kg; in the experiment with Alternaria alternata (setting [2]) it was 50 mg/kg; in the experiment on Trichoderma virens (setting [2]) it was >100 mg/kg. Besides, the “Minimum Inhibitory Concentrations (MIC)” value in the experiment on Stachybotrus charatrum (setting [2]) is listed as 10 mg/kg.

For `CO/C=C(/C(=O)OC)c1ccccc1Oc1cc(Oc2ccccc2C#N)ncn1` [Azoxystrobin, methyl (E)-2-{2-[6-(2-cyanophenoxy)pyrimidin-4-yloxy]phenyl}-3-methoxyacrylate], the “Minimum Inhibitory Concentrations (MIC)” value (in the experiment with Aspergillus niger (setting [2]); with Aureobasidium pullulans (setting [2]); in experiment [1] (setting [2]); in the experiment on Penicillium funiculosum (setting [2]); in the experiment with Alternaria alternata (setting [2]); in the experiment on Trichoderma virens (setting [2])) was >100 mg/kg each time. Also, the “Minimum Inhibitory Concentrations (MIC)” value with Stachybotrus charatrum (setting [2]) is recorded as 25 mg/kg.

On to `CC1(c2ccc(Oc3ccccc3)cc2)OC(=O)N(Nc2ccccc2)C1=O` (racemic) [FAMOXATE, (RS)-3-anilino-5-methyl-5-(4-phenoxyphenyl)-1,3-oxazolidine-2,4-dione], for which the “Minimum Inhibitory Concentrations (MIC)” value (with Aspergillus niger (setting [2]); with Aureobasidium pullulans (setting [2]); in experiment [1] (setting [2]); with Penicillium funiculosum (setting [2]); with Alternaria alternata (setting [2]); in the experiment on Trichoderma virens (setting [2])) was >100 mg/kg each time. The “Minimum Inhibitory Concentrations (MIC)” value in the experiment with Stachybotrus charatrum (setting [2]) was >100 mg/kg.

Regarding `CCNC(=O)NC(=O)C(C#N)=NOC` [Cymoxinil, 1-(2-cyano-2-methoxyiminoacetyl)-3-ethylurea], the “Minimum Inhibitory Concentrations (MIC)” value with Aspergillus niger (setting [2]) is 10 mg/kg; in the experiment on Aureobasidium pullulans (setting [2]), >100 mg/kg; in experiment [1] (setting [2]) it was >100 mg/kg; in the experiment on Penicillium funiculosum (setting [2]), >100 mg/kg; in the experiment on Alternaria alternata (setting [2]), >100 mg/kg; with Trichoderma virens (setting [2]), >100 mg/kg. Further, the “Minimum Inhibitory Concentrations (MIC)” value with Stachybotrus charatrum (setting [2]) was >100 mg/kg. Moreover, the MIC is recorded as >100 mg/kg with Aspergillus niger (single moldicide or ACQ-C alone, incubation period 14 days); >100 mg/kg with Aureobasidium pullulans; >100 mg/kg in experiment [1]; >100 mg/kg against Penicillium funiculosum; >100 mg/kg against Alternaria alternata; >100 mg/kg in the experiment on Trichoderma virens.

As for “bis(8-hydroxyquinolinium) sulfate [8-hydroxyquinoline]”, the “Minimum Inhibitory Concentrations (MIC)” value in the experiment with Aspergillus niger came out at 100 mg/kg; in the experiment with Aureobasidium pullulans, 50 mg/kg; in experiment [1], 25 mg/kg; with Penicillium funiculosum it was 25 mg/kg; in the experiment with Alternaria alternata, 25 mg/kg; in the experiment on Trichoderma virens, 25 mg/kg. For the same compound, in the experiment with Stachybotrus charatrum, the “Minimum Inhibitory Concentrations (MIC)” value is 10 mg/kg.

In the case of `CC(C)(C)C(O)C(Oc1ccc(Cl)cc1)n1cncn1` (stereo not drawn) [BAYTAN, (1RS,2RS; 1RS,2SR)-1-(4-chlorophenoxy)-3,3-dimethyl-1-(1H-1,2,4-triazol-1-yl)butan-2-ol], the “Minimum Inhibitory Concentrations (MIC)” value was >100 mg/kg with Aspergillus niger (setting [2]); 50 mg/kg with Aureobasidium pullulans (setting [2]); 50 mg/kg in experiment [1] (setting [2]); >100 mg/kg in the experiment with Penicillium funiculosum (setting [2]); >100 mg/kg in the experiment with Alternaria alternata (setting [2]); >100 mg/kg in the experiment with Trichoderma virens (setting [2]). Further, the “Minimum Inhibitory Concentrations (MIC)” value with Stachybotrus charatrum (setting [2]) is >100 mg/kg.

On to `O=[N+]([O-])c1cc(C(F)(F)F)c(Cl)c([N+](=O)[O-])c1Nc1ncc(C(F)(F)F)cc1Cl` [Fluazinam, 3-chloro-N-(3-chloro-5-trifluoromethyl-2-pyridyl)-alpha,alpha,alpha-trifluoro-2,6-dinitro-p-toluidine], for which the “Minimum Inhibitory Concentrations (MIC)” value is on record as 1 mg/kg with Aspergillus niger (setting [2]); 1 mg/kg in the experiment on Aureobasidium pullulans (setting [2]); 1 mg/kg in experiment [1] (setting [2]); 10 mg/kg in the experiment with Penicillium funiculosum (setting [2]); 10 mg/kg with Alternaria alternata (setting [2]); >100 mg/kg in the experiment with Trichoderma virens (setting [2]).

On to `S=C([S-])NCCNC(=S)[S-].[Na+].[Na+]` [Nabam, disodium ethylenebis(dithiocarbamate)], for which the “Minimum Inhibitory Concentrations (MIC)” value in the experiment on Aspergillus niger (setting [2]) is recorded as 100 mg/kg; in the experiment on Aureobasidium pullulans (setting [2]) it was 100 mg/kg; in experiment [1] (setting [2]), 100 mg/kg; in the experiment on Penicillium funiculosum (setting [2]), >100 mg/kg; in the experiment on Alternaria alternata (setting [2]) it was >100 mg/kg; with Trichoderma virens (setting [2]), 100 mg/kg. Further, the “Minimum Inhibitory Concentrations (MIC)” value with Stachybotrus charatrum (setting [2]) was 100 mg/kg.

`CC1=C(C(=O)Nc2ccccc2)SCCO1` [Carboxin, 5,6-dihydro-2-methyl-1,4-oxathiine-3-carboxanilide]: the “Minimum Inhibitory Concentrations (MIC)” value is recorded as >100 mg/kg in the experiment with Aspergillus niger (setting [2]); 100 mg/kg in the experiment on Aureobasidium pullulans (setting [2]); 100 mg/kg in experiment [1] (setting [2]); >100 mg/kg in the experiment on Penicillium funiculosum (setting [2]); >100 mg/kg with Alternaria alternata (setting [2]); 100 mg/kg in the experiment on Stachybotrus charatrum (setting [2]). In the experiment on Mold from ACQ wood, the “Minimum Inhibitory Concentrations (MIC)” value was >100 mg/kg.

Regarding `N#CSCSc1nc2ccccc2s1` [TCMBT, 2-(thiocyanomethylthio)benzothiazole], the “Minimum Inhibitory Concentrations (MIC)” value in the experiment with Aureobasidium pullulans (setting [2]) worked out at 300 mg/kg; in experiment [1] (setting [2]), 30 mg/kg; in the experiment with Penicillium funiculosum (setting [2]), 30 mg/kg; in the experiment with Alternaria alternata (setting [2]) it was 300 mg/kg; with Trichoderma virens (setting [2]), 3 mg/kg; in the experiment with Stachybotrus charatrum (setting [2]), 3 mg/kg. Besides, the MIC is recorded as 300 mg/kg in the experiment on Aureobasidium pullulans; 30 mg/kg in experiment [1]; 30 mg/kg in the experiment with Penicillium funiculosum; 300 mg/kg in the experiment on Alternaria alternata; 3 mg/kg against Trichoderma virens.

On to `CC(Cc1ccc(C(C)(C)C)cc1)CN1C[C@@H](C)O[C@@H](C)C1` (mixture of isomers) [Fenpropimorph, (RS)-cis-4-[3-(4-tert-butylphenyl)-2-methylpropyl]-2,6-dimethylmorpholine], for which the “Minimum Inhibitory Concentrations (MIC)” value in the experiment with Aspergillus niger (setting [2]) is given as >100 mg/kg; with Aureobasidium pullulans (setting [2]) it was 10 mg/kg; in experiment [1] (setting [2]), 50 mg/kg; in the experiment with Penicillium funiculosum (setting [2]), >100 mg/kg; in the experiment on Alternaria alternata (setting [2]), 50 mg/kg; in the experiment with Trichoderma virens (setting [2]), 10 mg/kg. For the same compound, the “Minimum Inhibitory Concentrations (MIC)” value in the experiment on Stachybotrus charatrum (setting [2]) is recorded as 10 mg/kg.
